According to the supplement of paper PMC10307832:

Experiments:
Assay in all cases: relative viability (nuclei count vs DMSO), 5 days (fraction); higher = more cells survive
Everolimus + Tozasertib = compound: CO[C@H]1C[C@@H]2CC[C@@H](C)[C@@](O)(O2)C(=O)C(=O)N2CCCC[C@H]2C(=O)O[C@H]([C@H](C)C[C@@H]2CC[C@@H](OCCO)[C@H](OC)C2)CC(=O)[C@H](C)/C=C(\C)[C@@H](O)[C@@H](OC)C(=O)[C@H](C)C[C@H](C)/C=C/C=C/C=C/1C [Everolimus] + Cc1cc(Nc2cc(N3CCN(C)CC3)nc(Sc3ccc(NC(=O)C4CC4)cc3)n2)n[nH]1 [Tozasertib] (partner 0.1 µM)
How it was run: (§1)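 Relative viability equals treated-well nuclei counts divided by vehicle-well nuclei counts. Counts came from 4× images of lung cancer cell lines grown in 1536-well plates for 5 days after pin-tool dosing on the day after seeding. Dosing used one drug alone or a fixed anchor-drug dose plus five library-drug doses (not always all listed) in √10 steps, and values are medians of duplicate plates.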

Everolimus + Dasatinib = compound: CO[C@H]1C[C@@H]2CC[C@@H](C)[C@@](O)(O2)C(=O)C(=O)N2CCCC[C@H]2C(=O)O[C@H]([C@H](C)C[C@@H]2CC[C@@H](OCCO)[C@H](OC)C2)CC(=O)[C@H](C)/C=C(\C)[C@@H](O)[C@@H](OC)C(=O)[C@H](C)C[C@H](C)/C=C/C=C/C=C/1C [Everolimus] + Cc1nc(Nc2ncc(C(=O)Nc3c(C)cccc3Cl)s2)cc(N2CCN(CCO)CC2)n1 [Dasatinib] (partner 0.075 µM)
How it was run: as §1

Everolimus + Foretinib = compound: CO[C@H]1C[C@@H]2CC[C@@H](C)[C@@](O)(O2)C(=O)C(=O)N2CCCC[C@H]2C(=O)O[C@H]([C@H](C)C[C@@H]2CC[C@@H](OCCO)[C@H](OC)C2)CC(=O)[C@H](C)/C=C(\C)[C@@H](O)[C@@H](OC)C(=O)[C@H](C)C[C@H](C)/C=C/C=C/C=C/1C [Everolimus] + COc1cc2c(Oc3ccc(NC(=O)C4(C(=O)Nc5ccc(F)cc5)CC4)cc3F)ccnc2cc1OCCCN1CCOCC1 [Foretinib] (partner 0.25 µM)
How it was run: as §1

Everolimus + Phenformin = compound: CO[C@H]1C[C@@H]2CC[C@@H](C)[C@@](O)(O2)C(=O)C(=O)N2CCCC[C@H]2C(=O)O[C@H]([C@H](C)C[C@@H]2CC[C@@H](OCCO)[C@H](OC)C2)CC(=O)[C@H](C)/C=C(\C)[C@@H](O)[C@@H](OC)C(=O)[C@H](C)C[C@H](C)/C=C/C=C/C=C/1C [Everolimus] + N=C(N)NC(=N)NCCc1ccccc1 [Phenformin] (partner 250 µM)
How it was run: as §1

Everolimus + OSI-027 = compound: CO[C@H]1C[C@@H]2CC[C@@H](C)[C@@](O)(O2)C(=O)C(=O)N2CCCC[C@H]2C(=O)O[C@H]([C@H](C)C[C@@H]2CC[C@@H](OCCO)[C@H](OC)C2)CC(=O)[C@H](C)/C=C(\C)[C@@H](O)[C@@H](OC)C(=O)[C@H](C)C[C@H](C)/C=C/C=C/C=C/1C [Everolimus] + COc1cccc2cc(-c3nc([C@H]4CC[C@H](C(=O)O)CC4)n4ncnc(N)c34)[nH]c12 [OSI-027] (partner 0.5 µM)
How it was run: as §1

Everolimus + Luminespib = compound: CO[C@H]1C[C@@H]2CC[C@@H](C)[C@@](O)(O2)C(=O)C(=O)N2CCCC[C@H]2C(=O)O[C@H]([C@H](C)C[C@@H]2CC[C@@H](OCCO)[C@H](OC)C2)CC(=O)[C@H](C)/C=C(\C)[C@@H](O)[C@@H](OC)C(=O)[C@H](C)C[C@H](C)/C=C/C=C/C=C/1C [Everolimus] + CCNC(=O)c1noc(-c2cc(C(C)C)c(O)cc2O)c1-c1ccc(CN2CCOCC2)cc1 [Luminespib] (partner 0.01 µM)
How it was run: as §1

Everolimus = compound: CO[C@H]1C[C@@H]2CC[C@@H](C)[C@@](O)(O2)C(=O)C(=O)N2CCCC[C@H]2C(=O)O[C@H]([C@H](C)C[C@@H]2CC[C@@H](OCCO)[C@H](OC)C2)CC(=O)[C@H](C)/C=C(\C)[C@@H](O)[C@@H](OC)C(=O)[C@H](C)C[C@H](C)/C=C/C=C/C=C/1C [Everolimus]
How it was run: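 In 1536-well plates, lung cancer cell lines rested overnight at 37 °C before five library-drug doses (not always all listed), √10 apart, were pinned onto vehicle-anchored plates. Nuclei were counted with MetaXpress from 4× Hoechst images taken after 5 days without medium change. Viability compares treated-well with vehicle-well nuclei as a median over plates, and plates needed control CV below 25% plus at least one doubling to pass.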

## NCI-H1623
Everolimus + Tozasertib; first compound 0.01 µM
  relative viability: 0.411
Everolimus + Tozasertib; first compound 0.03162 µM
  relative viability: 0.396
Everolimus + Tozasertib; first compound 0.1 µM
  relative viability: 0.39
Everolimus + Tozasertib; first compound 0.3162 µM
  relative viability: 0.381
Everolimus + Tozasertib; first compound 1 µM
  relative viability: 0.385
Everolimus + Dasatinib; first compound 0.01 µM
  relative viability: 0.388
Everolimus + Dasatinib; first compound 0.03162 µM
  relative viability: 0.566
Everolimus + Dasatinib; first compound 0.1 µM
  relative viability: 0.317
Everolimus + Dasatinib; first compound 0.3162 µM
  relative viability: 0.352
Everolimus + Dasatinib; first compound 1 µM
  relative viability: 0.382
Everolimus + Foretinib; first compound 0.01 µM
  relative viability: 0.721
Everolimus + Foretinib; first compound 0.03162 µM
  relative viability: 0.831
Everolimus + Foretinib; first compound 0.1 µM
  relative viability: 0.53
Everolimus + Foretinib; first compound 0.3162 µM
  relative viability: 0.511
Everolimus + Foretinib; first compound 1 µM
  relative viability: 0.563
Everolimus + Phenformin; first compound 0.01 µM
  relative viability: 0.466
Everolimus + Phenformin; first compound 0.03162 µM
  relative viability: 0.622
Everolimus + Phenformin; first compound 0.1 µM
  relative viability: 0.444
Everolimus + Phenformin; first compound 0.3162 µM
  relative viability: 0.444
Everolimus + Phenformin; first compound 1 µM
  relative viability: 0.512
Everolimus + OSI-027; first compound 0.01 µM
  relative viability: 0.408
Everolimus + OSI-027; first compound 0.03162 µM
  relative viability: 0.395
Everolimus + OSI-027; first compound 0.1 µM
  relative viability: 0.362
Everolimus + OSI-027; first compound 0.3162 µM
  relative viability: 0.384
Everolimus + OSI-027; first compound 1 µM
  relative viability: 0.372
Everolimus + Luminespib; first compound 0.01 µM
  relative viability: 0.467
Everolimus + Luminespib; first compound 0.03162 µM
  relative viability: 0.336
Everolimus + Luminespib; first compound 0.1 µM
  relative viability: 0.307
Everolimus + Luminespib; first compound 0.3162 µM
  relative viability: 0.326
Everolimus + Luminespib; first compound 1 µM
  relative viability: 0.296
Everolimus; 0.01 µM
  relative viability: 0.773
Everolimus; 0.03162 µM
  relative viability: 0.622
Everolimus; 0.1 µM
  relative viability: 0.595
Everolimus; 0.3162 µM
  relative viability: 0.581
Everolimus; 1 µM
  relative viability: 0.514
